Source: the OligoGym collection
HELM strings list units from the 5' end as sugar, base in round brackets, then linkage (d deoxyribose, r ribose, m 2'-O-methyl, p phosphodiester). Strings are as the collection lists them; they lack the last nucleoside at the 3' end of the tested compound. [moe] = 2'-O-(2-methoxyethyl) (MOE); [sp] = phosphorothioate linkage; [m5C] = 5-methylcytosine

What follows are substances tested against ATXN2 (assay: mouse, dose not given). Conditions: ASO.
“RNA1{[moe]([m5C])[sp].[moe](A)p.[moe](G)p.[moe]([m5C])p.[moe](T)p.d([m5C])[sp].d(T)[sp].d(G)[sp].d(T)[sp].d(T)[sp].d([m5C])[sp].d(G)[sp].d(A)[sp].d(T)[sp].d(G)[sp].[moe]([m5C])p.[moe](A)p.[moe](G)[sp].[moe](G)}$$$$ (last 3' nucleoside missing)” was tested, and the 3 h FOB score was 6.25 score 0-7. “RNA1{[moe]([m5C])[sp].[moe](A)p.[moe](T)p.[moe](A)p.[moe]([m5C])p.d(G)[sp].d([m5C])[sp].d(G)[sp].d(G)[sp].d(T)[sp].d(G)[sp].d(A)[sp].d(A)[sp].d(T)[sp].d(T)[sp].[moe]([m5C])p.[moe](T)p.[moe](G)[sp].[moe](T)}$$$$ (last 3' nucleoside missing)” gave a 3 h FOB score of 4 score 0-7. “RNA1{[moe]([m5C])[sp].[moe](A)p.[moe](T)p.[moe](T)p.[moe](T)p.d(T)[sp].d(G)[sp].d(A)[sp].d(A)[sp].d(T)[sp].d(T)[sp].d(A)[sp].d([m5C])[sp].d(A)[sp].d(A)[sp].[moe](T)p.[moe](G)p.[moe]([m5C])[sp].[moe](G)}$$$$ (last 3' nucleoside missing)” showed a 3 h FOB score of 1 score 0-7. Work on “RNA1{[moe]([m5C])[sp].[moe](A)p.[moe]([m5C])p.[moe](A)[sp].[moe](G)[sp].d(T)[sp].d(T)[sp].d(T)[sp].d([m5C])[sp].d(A)[sp].d([m5C])[sp].d(T)[sp].d(A)[sp].d(G)[sp].d(G)[sp].[moe](T)p.[moe](T)p.[moe]([m5C])[sp].[moe](T)}$$$$ (last 3' nucleoside missing)” yielded a 3 h FOB score of 4 score 0-7. For “RNA1{[moe]([m5C])[sp].[moe](A)p.[moe]([m5C])p.[moe](A)p.[moe](G)[sp].d(T)[sp].d(T)[sp].d(T)[sp].d([m5C])[sp].d(A)[sp].d([m5C])[sp].d(T)[sp].d(A)[sp].d(G)[sp].d(G)[sp].[moe](T)p.[moe](T)p.[moe]([m5C])[sp].[moe](T)}$$$$ (last 3' nucleoside missing)”, the 3 h FOB score was 4.75 score 0-7. In the case of “RNA1{[moe]([m5C])[sp].[moe](A)p.[moe]([m5C])p.[moe](A)p.[moe](G)p.d(T)[sp].d(T)[sp].d(T)[sp].d([m5C])[sp].d(A)[sp].d([m5C])[sp].d(T)[sp].d(A)[sp].d(G)[sp].d(G)[sp].[moe](T)p.[moe](T)p.[moe]([m5C])[sp].[moe](T)}$$$$ (last 3' nucleoside missing)”, the 3 h FOB score is reported as 4.25 score 0-7. “RNA1{[moe]([m5C])[sp].[moe](A)p.[moe]([m5C])p.[moe](A)p.[moe]([m5C])p.d(A)[sp].d([m5C])[sp].d(T)[sp].d(T)[sp].d(T)[sp].d(A)[sp].d(A)[sp].d(A)[sp].d(T)[sp].d(A)[sp].[moe]([m5C])p.[moe](A)p.[moe](G)[sp].[moe](G)}$$$$ (last 3' nucleoside missing)” was tested, and the 3 h FOB score was 6.5 score 0-7. For “RNA1{[moe]([m5C])[sp].[moe](G)p.[moe](G)p.[moe](A)p.[moe](T)p.d(T)[sp].d(G)[sp].d(T)[sp].d(T)[sp].d(T)[sp].d(T)[sp].d([m5C])[sp].d(T)[sp].d(T)[sp].d([m5C])[sp].[moe](A)p.[moe](T)p.[moe](T)[sp].[moe](A)}$$$$ (last 3' nucleoside missing)”, the 3 h FOB score was 1 score 0-7. “RNA1{[moe]([m5C])[sp].[moe](G)p.[moe](T)p.[moe](A)p.[moe](T)[sp].d(G)[sp].d(T)[sp].d(T)[sp].d(T)[sp].d(G)[sp].d(T)[sp].d([m5C])[sp].d(T)[sp].[moe](G)p.[moe](T)p.[moe]([m5C])[sp].[moe](T)}$$$$ (last 3' nucleoside missing)” showed a 3 h FOB score of 6 score 0-7. “RNA1{[moe]([m5C])[sp].[moe](G)p.[moe](T)p.[moe](A)p.[moe](T)p.[moe](G)p.d(T)[sp].d(T)[sp].d(T)[sp].d(G)[sp].d(T)[sp].d([m5C])[sp].d(T)[sp].d(G)[sp].d(T)[sp].d([m5C])[sp].[moe](T)p.[moe](T)[sp].[moe](A)}$$$$ (last 3' nucleoside missing)” was tested, and the 3 h FOB score was 6.75 score 0-7. With “RNA1{[moe]([m5C])[sp].[moe](G)p.[moe](T)p.[moe](A)p.[moe](T)p.d(G)[sp].d(T)[sp].d(T)[sp].d(T)[sp].d(G)[sp].d(T)[sp].d([m5C])[sp].d(T)[sp].d(G)[sp].d(T)[sp].[moe]([m5C])p.[moe](T)p.[moe](T)[sp].[moe](A)}$$$$ (last 3' nucleoside missing)” the 3 h FOB score was 6.25 score 0-7. In the case of “RNA1{[moe]([m5C])[sp].[moe](G)p.[moe](T)p.[moe](A)p.d(T)[sp].d(G)[sp].d(T)[sp].d(T)[sp].d(T)[sp].d(G)[sp].d(T)[sp].d([m5C])[sp].d(T)[sp].d(G)[sp].[moe](T)p.[moe]([m5C])p.[moe](T)p.[moe](T)[sp].[moe](A)}$$$$ (last 3' nucleoside missing)”, the 3 h FOB score is reported as 4 score 0-7. “RNA1{[moe]([m5C])[sp].[moe](G)p.[moe](T)p.[moe](G)p.[moe](G)p.d(T)[sp].d(G)[sp].d(G)[sp].d(T)[sp].d(G)[sp].d(T)[sp].d(G)[sp].d([m5C])[sp].d(G)[sp].d([m5C])[sp].[moe](A)p.[moe](T)p.[moe](G)[sp].[moe](T)}$$$$ (last 3' nucleoside missing)” gave a 3 h FOB score of 6.25 score 0-7. Work on “RNA1{[moe]([m5C])[sp].[moe](G)p.[moe](T)p.[moe](T)p.[moe](T)p.d([m5C])[sp].d([m5C])[sp].d(T)[sp].d(T)[sp].d([m5C])[sp].d(T)[sp].d([m5C])[sp].d([m5C])[sp].d([m5C])[sp].d(T)[sp].[moe](T)p.[moe](T)p.[moe](G)[sp].[moe](A)}$$$$ (last 3' nucleoside missing)” yielded a 3 h FOB score of 0 score 0-7. For “RNA1{[moe]([m5C])[sp].[moe](G)p.[moe]([m5C])p.[moe](G)p.[moe](G)p.d(T)[sp].d(G)[sp].d(A)[sp].d(A)[sp].d(T)[sp].d(T)[sp].d([m5C])[sp].d(T)[sp].d(G)[sp].d(T)[sp].[moe]([m5C])p.[moe](T)p.[moe]([m5C])[sp].[moe]([m5C])}$$$$ (last 3' nucleoside missing)”, the 3 h FOB score was 1 score 0-7. With “RNA1{[moe]([m5C])[sp].[moe](T)[sp].[moe](G)[sp].[moe](G)[sp].[moe](T)[sp].d(A)[sp].d([m5C])[sp].d(A)[sp].d(G)[sp].d(T)[sp].d(T)[sp].d(G)[sp].d([m5C])[sp].d(T)[sp].d(G)[sp].[moe]([m5C])[sp].[moe](T)[sp].[moe](G)[sp].[moe]([m5C])}$$$$ (last 3' nucleoside missing)” the 3 h FOB score was 7 score 0-7. Work on “RNA1{[moe]([m5C])[sp].[moe](T)[sp].[moe]([m5C])[sp].[moe](T)[sp].[moe]([m5C])[sp].d([m5C])[sp].d(A)[sp].d(T)[sp].d(T)[sp].d(A)[sp].d(T)[sp].d(T)[sp].d(T)[sp].d([m5C])[sp].d(T)[sp].[moe](T)[sp].[moe]([m5C])[sp].[moe](A)[sp].[moe]([m5C])}$$$$ (last 3' nucleoside missing)” yielded a 3 h FOB score of 7 score 0-7. In the case of “RNA1{[moe]([m5C])[sp].[moe](T)p.[moe](A)p.[moe](A)p.[moe]([m5C])[sp].d(T)[sp].d(G)[sp].d(G)[sp].d(T)[sp].d(T)[sp].d(T)[sp].d(G)[sp].d([m5C])[sp].[moe]([m5C])p.[moe]([m5C])p.[moe](T)[sp].[moe](T)}$$$$ (last 3' nucleoside missing)”, the 3 h FOB score is reported as 7 score 0-7. “RNA1{[moe]([m5C])[sp].[moe](T)p.[moe](A)p.[moe](G)p.[moe](G)p.d(T)[sp].d(G)[sp].d(A)[sp].d(T)[sp].d(G)[sp].d(T)[sp].d(T)[sp].d(T)[sp].d([m5C])[sp].d(A)[sp].[moe](T)p.[moe](T)p.[moe](G)[sp].[moe](G)}$$$$ (last 3' nucleoside missing)” gave a 3 h FOB score of 7 score 0-7.
